Source: patent US20110212986A1, “ANTI-FLAVIVIRUS THERAPEUTIC” (priority 2008, published 2011)
Entries after “also recorded” stand apart in the source; their conditions may differ.

What was measured:
[1] = tested on: WNV (epidemic strain 3356); experiment: microbe, parasite or virus in culture; assay type: cell-based; settings: West Nile virus, Vero, 42 h
[2] = tested on: G6871A mutant virus (WNV); assay type: cell-based; settings: Vero cells, 0.1 MOI
in vitro = settings: African green monkey
HIV-1 = settings: at a noncytotoxic concentration; Szlavik et al., 2004; cited from earlier work
WNV NTPase = WNV NTPase (West Nile virus, UniProt Q9Q6P4); experiment: Enzyme assay, recombinant WNV NTPase; settings: concentrations up to 100 μM
[3] = tested on: VSV (New Jersey serotype); assay type: cell-based, vesicular stomatitis virus
WNV (WT and G6871A MT) = assay type: cell-based; settings: 1.2 μM; Vero cells, MOI 5; each time point
[4] = tested on: Vero cells containing WNV replicon (Rluc-Neo-Rep); assay type: cell-based, West Nile virus; settings: 1.5-1 μM for 24 h or 48 h
[5] = tested on: G6871A mutant WNV replicon (Rluc2A-Rep); assay type: cell-based, West Nile virus; settings: 1.5 μM; BHK-21 cells
WNV MTase = WNV MTase (West Nile virus, UniProt Q9Q6P4); experiment: Enzyme assay, recombinant WNV MTase; settings: concentrations up to 100 μM
[6] = tested on: Vero cells containing DENV-1 replicon (Rluc-Neo-Rep); assay type: cell-based, dengue virus; settings: 1.5-1 μM for 24 h or 48 h
WNV VLP = assay type: cell-based, West Nile virus; settings: 1.5 μM
WNV RdRp = WNV RdRp (West Nile virus, UniProt Q9Q6P4); experiment: Enzyme assay, recombinant WNV RdRp; settings: concentrations up to 100 μM
[7] = tested on: Rluc2A-Rep of DENV-1 in BHK-21 cells; assay type: cell-based, dengue virus
[8] = tested on: Rluc2A-Rep of WNV in BHK-21 cells; assay type: cell-based, West Nile virus
poliovirus = settings: cited from earlier work
DENV-1 VLP = assay type: cell-based, dengue virus; settings: 1.5 μM
WNV protease (with NS2B) = WNV protease (with NS2B) (West Nile virus, UniProt Q9Q6P4); experiment: Enzyme assay, recombinant WNV protease; settings: concentrations up to 100 μM
[9] = tested on: lycorine-resistant WNV (P12 viruses); experiment: Resistance assay, lycorine-resistant P12 WNV; assay type: cell-based, West Nile virus; settings: 1.2 μM
WNV = experiment: Time-of-addition analysis in WNV infection; assay type: cell-based, West Nile virus; settings: 1.2 μM; Vero cells, WNV MOI 10; titers at 20 h post-infection
WEEV (strain Cova 746) = assay type: cell-based, Western equine encephalitis virus

WNV protease (with NS2B), sequence (Q9Q6P4 1506-2124): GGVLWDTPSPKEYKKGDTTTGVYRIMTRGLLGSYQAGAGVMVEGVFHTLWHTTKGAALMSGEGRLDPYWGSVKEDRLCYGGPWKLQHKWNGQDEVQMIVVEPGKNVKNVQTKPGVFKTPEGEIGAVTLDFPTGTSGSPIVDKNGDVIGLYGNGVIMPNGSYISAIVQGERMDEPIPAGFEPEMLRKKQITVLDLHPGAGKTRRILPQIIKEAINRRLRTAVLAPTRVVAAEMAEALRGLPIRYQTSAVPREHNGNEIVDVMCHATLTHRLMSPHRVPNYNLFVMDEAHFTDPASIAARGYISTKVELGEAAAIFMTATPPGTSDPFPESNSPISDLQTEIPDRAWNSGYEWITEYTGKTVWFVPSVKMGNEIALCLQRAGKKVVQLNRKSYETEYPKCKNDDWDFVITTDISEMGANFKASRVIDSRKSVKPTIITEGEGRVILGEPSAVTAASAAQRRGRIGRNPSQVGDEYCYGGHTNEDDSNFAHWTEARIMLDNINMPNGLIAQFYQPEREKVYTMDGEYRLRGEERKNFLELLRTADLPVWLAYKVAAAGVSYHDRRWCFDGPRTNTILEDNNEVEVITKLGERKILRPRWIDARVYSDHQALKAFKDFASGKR
WNV protease (with NS2B), sequence (Q9Q6P4 1375-1505): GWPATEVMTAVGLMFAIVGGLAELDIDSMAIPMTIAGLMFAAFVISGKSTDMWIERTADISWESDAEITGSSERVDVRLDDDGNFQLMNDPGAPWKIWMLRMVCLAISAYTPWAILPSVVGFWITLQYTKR
WNV NTPase, sequence (Q9Q6P4 1506-2124): as the sequence (Q9Q6P4 1506-2124) above
WNV MTase, sequence (Q9Q6P4 2529-3433): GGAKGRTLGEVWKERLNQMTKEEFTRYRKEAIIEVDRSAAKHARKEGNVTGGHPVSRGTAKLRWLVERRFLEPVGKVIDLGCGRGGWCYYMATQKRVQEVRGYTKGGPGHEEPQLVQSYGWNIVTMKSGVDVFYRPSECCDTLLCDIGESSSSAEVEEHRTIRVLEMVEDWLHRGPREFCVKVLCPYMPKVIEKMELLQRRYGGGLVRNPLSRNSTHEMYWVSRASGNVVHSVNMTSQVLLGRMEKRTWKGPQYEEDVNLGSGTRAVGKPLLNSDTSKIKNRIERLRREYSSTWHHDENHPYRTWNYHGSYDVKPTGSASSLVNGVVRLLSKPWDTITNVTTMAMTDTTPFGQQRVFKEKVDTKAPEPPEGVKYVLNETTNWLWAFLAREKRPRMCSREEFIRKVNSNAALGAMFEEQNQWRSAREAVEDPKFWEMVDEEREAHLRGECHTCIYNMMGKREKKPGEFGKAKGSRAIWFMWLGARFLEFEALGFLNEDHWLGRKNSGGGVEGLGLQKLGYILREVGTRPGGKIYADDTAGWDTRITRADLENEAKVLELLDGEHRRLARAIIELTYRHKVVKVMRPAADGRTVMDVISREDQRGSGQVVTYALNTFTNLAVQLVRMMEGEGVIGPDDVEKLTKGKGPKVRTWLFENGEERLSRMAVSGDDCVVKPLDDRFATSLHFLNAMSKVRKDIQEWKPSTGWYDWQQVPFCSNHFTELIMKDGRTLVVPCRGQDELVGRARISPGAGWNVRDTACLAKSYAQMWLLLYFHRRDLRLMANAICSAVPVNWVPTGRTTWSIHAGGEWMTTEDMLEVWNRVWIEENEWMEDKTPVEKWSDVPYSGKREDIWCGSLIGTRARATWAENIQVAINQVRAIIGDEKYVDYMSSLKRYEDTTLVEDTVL
WNV RdRp, sequence (Q9Q6P4 2529-3433): as above

Question: With CC(=O)O[C@H]1[C@H]2c3cc4c(cc3CN3CCC(=C[C@@H]1OC(C)=O)[C@H]23)OCO4 [Compound 1180] as the compound, how does the EC50 [1] read?
Answer: 1.49 µM

Question: For CC(=O)O[C@H]1[C@H]2c3cc4c(cc3CN3CCC(=C[C@@H]1O)[C@H]23)OCO4 [Compound 1181], which EC50 [1] is on record?
Answer: 0.86 µM

Question: For CC(=O)O[C@H]1[C@H]2c3cc4c(cc3CN(C(=O)OCC(Cl)(Cl)Cl)[C@@H]2C(CCCl)=C[C@@H]1OC(C)=O)OCO4 [Compound 1193], which EC50 [1] is on record?
Answer: > 300 µM

Question: What about the CC50 (Vero cells; African green monkey) of the same compound?
Answer: > 300 µM

Question: Which EC50 [1] does the source give for CC(=O)OCCC1=C[C@H](OC(C)=O)[C@@H](OC(C)=O)[C@H]2c3cc4c(cc3CN(C(=O)OCC(Cl)(Cl)Cl)[C@H]12)OCO4 [Compound 1194] here?
Answer: 72 µM

Question: And the CC50 (Vero cells; African green monkey)?
Answer: > 300 µM

Question: What does the source list for CC(=O)O[C@H]1[C@H]2c3cc4c(cc3C(=O)N3CCC(=C[C@@H]1OC(C)=O)[C@H]23)OCO4 [Compound 1197]?
Answer: EC50 [1]: ≥ 300 µM; CC50 (Vero cells; African green monkey): > 300 µM

Question: For CC(C)(C)[Si](C)(C)O[C@H]1C=C2CCN3Cc4cc5c(cc4[C@H]([C@@H]1O)[C@@H]23)OCO5 [Compound 1198], which EC50 [1] is on record?
Answer: 0.73 µM

Question: Which results are given for CC(=O)O[C@@H]1C(=O)C=C2CCN3Cc4cc5c(cc4[C@H]1[C@@H]23)OCO5 [Compound 1200]?
Answer: resistance of G6871A mutant virus to the compound [2]: resistant; CC50 (in vitro): > 300 µM; EC50 [1]: 0.19 µM; CC50 (Vero cells; African green monkey): > 300 µM

Question: Which “inhibition of HIV-1” value (HIV-1) does the source give for O[C@H]1[C@H]2c3cc4c(cc3CN3CCC(=C[C@@H]1O)[C@H]23)OCO4 [Lycorine] here?
Answer: does not inhibit

Question: What about the “resistance of G6871A mutant virus to the compound” value [2] of the same compound?
Answer: showed a resistance level close to those of the P12 viruses

Question: What about the “suppression of WNV NTPase activity” value (WNV NTPase) of the same compound?
Answer: None of the enzyme activities were suppressed

Question: What about the “inhibition of VSV (viral titer)” value [3] of the same compound?
Answer: did not inhibit; also recorded: suppressed titers of neither WEEV nor VSV; also recorded: does not inhibit

Question: And the “viral protein expression (NS1, NS3, NS5), western blotting” value (WNV (WT and G6871A MT))?
Answer: suppressed viral protein expression

Question: What about the “luciferase activities in WNV Rluc-Neo-Rep cells” value [4] of the same compound?
Answer: reduced luciferase activities

Question: What about the “suppression of reporting signals at 2, 4, and 6 h p.t., G6871A mutant replicon” value [5] of the same compound?
Answer: ≤ 30%

Question: And the “suppression of WNV MTase activity” value (WNV MTase)?
Answer: None of the enzyme activities were suppressed

Question: What about the “luciferase activities in DENV Rluc-Neo-Rep cells” value [6] of the same compound?
Answer: reduced luciferase activities

Question: And the “reduction of luciferase signals, WNV VLP-infected cells” value (WNV VLP)?
Answer: 1,400 fold

Question: What about the “suppression of WNV RdRp activity” value (WNV RdRp) of the same compound?
Answer: None of the enzyme activities were suppressed

Question: And the EC50 [1]?
Answer: 0.23 µM

Question: And the “suppression of early luciferase signals (viral translation), DENV-1 replicon” value ([7]; 1.5 μM, 2, 4, and 6 h p.t.)?
Answer: ≤ 30%

Question: What about the “reduction of late luciferase signals (RNA synthesis), DENV-1 replicon” value ([7]; 1.5 μM, 24, 30 and 48 h p.t.) of the same compound?
Answer: > 99%

Question: What about the CC50 (Vero cells; African green monkey) of the same compound?
Answer: 24 µM

Question: And the cell viability (Vero cells; African green monkey)?
Answer: > 90%

Question: And the “decrease of viability of Vero cells” value (Vero cells; at 31 μM)?
Answer: ~50%

Question: And the “suppression of early luciferase signals (viral translation), WNV replicon” value ([8]; 1.5 μM, 2, 4, and 6 h p.t.)?
Answer: ≤ 30%

Question: What about the “reduction of late luciferase signals (RNA synthesis), WNV replicon” value ([8]; 1.5 μM, 24, 30 and 48 h p.t.) of the same compound?
Answer: > 99%

Question: And the “suppression of poliovirus viral translation” value (poliovirus)?
Answer: ~90%

Question: What about the “reduction of luciferase signals, DENV-1 VLP-infected cells” value (DENV-1 VLP) of the same compound?
Answer: 1,200 fold

Question: And the “suppression of WNV protease (with NS2B) activity” value (WNV protease (with NS2B))?
Answer: None of the enzyme activities were suppressed

Question: What about the “increase of resistance of the P12 viruses over that of the WT” value [9] of the same compound?
Answer: approximately 100 fold

Question: And the “reduction of viral titers of P12 virus-infected cells” value ([9]; Vero cells, MOI 0.1, 42 h p.i.)?
Answer: approximately 10 fold

Question: What about the “antiviral activity when added after 10 h post-infection” value (WNV) of the same compound?
Answer: completely lost its antiviral activity; also recorded: completely lost the inhibitory activity

Question: And the “inhibition of WEEV (viral titer)” value (WEEV (strain Cova 746))?
Answer: did not inhibit; also recorded: suppressed titers of neither WEEV nor VSV; also recorded: does not inhibit
